Experimental data from US9206136B2, “Pyrazolyl-based carboxamides I” (Grünenthal GmbH, priority 2013, dated 2015).

Experiments:
[1] = biological target: T1, CRAC channel (endogenous SOC in HEK293 cells) (Homo sapiens, UniProt Q96D31); experiment: HEK Calcium Influx Assay (FLIPR); format: cell-based; details: 10 μM compound, thapsigargin store depletion, Ca2+ signal 9.5-10 min post-administration, read-out: % inhib. [@ 10 μM] FLIPR
T1 construct: host or cells: HEK293
Protocol: Compounds of the invention have been tested for their effects on CRAC channels according to the following or similar procedures.
The effect of compounds of the invention on intracellular [Ca^2+] was tested in the HEK293 cell line (ECACC).
HEK293 cells were cultured in DMEM/F12/Glutamax (Gibco) containing 10% FCS (Gibco), and maintained at 37° C., 5% CO2. Cell were split twice a week [3·10^6 (Mon-Thu) and 1·10^6 (Thu-Mon) cells/50 ml medium in T-175 ZK culture flasks, respectively]. 24 hours pre-experiment, cells were seeded on 96 well plates (Poly-D-Lysine 96well Black/Clear Plate, BD Biocoat REF 356640) at a density of 40,000 cells/well in DMEM/F12 (Gibco) containing 10% FCS (Gibco), and maintained at 37° C., 5% CO2.
Prior to store-depletion, cell culture medium was removed and cells were loaded with the a Ca^2+-sensitive fluorescent dye comprised within the Calcium-4-assay kit (Molecular Devices) in nominally Ca^2+-free HBS buffer (140 mM NaCl, 4 mM KCl, 0.2 mM MgCl2, 11 mM D-glucose, and 10 mM HEPES, pH 7.4) according to manufacturer's instruction for 60 min at 37° C., 5% CO2.
Passive depletion of intracellular Ca^2+-stores was then triggered by employing the SERCA inhibitor thapsigargin (2 μM final) for 10 min in the dark (rt). To prevent immediate Ca^2+-entry via the activated Store-operated channels (SOCs), cells were maintained in Ca^2+-free HBS buffer comprising 100 μM EGTA during store-depletion.
Intracellular changes in [Ca^2+] were subsequently monitored with the FLIPR device (Molecular Devices). In brief, baseline imaging post-store depletion was allowed for 1 min before adjusting the extracellular buffer to 3 mM CaCl2. Increases in intracellular [Ca^2+] due to pre-activated SOC channels were monitored for 15 min until intracellular Ca^2+ levels had declined into a steady-state. Finally, compounds were administered and Ca^2+ signals were recorded for additional 10 min.
Inhibition of endogenous SOC in HEK293 cells was quantified employing the average Ca^2+ signal measured from 9.5-10 min post-administration. Zero percent inhibition (MAX) was defined as the Ca^2+ signal recorded from wells to which DMSO-only had been added instead of compound. Hundred percent inhibition (MIN) was defined as the signal obtained from wells in which cells haven't been treated with TG prior to Ca^2+ addition and to which DMSO-only had been added instead of compound. For routine IC50 determinations of compounds, 8 concentrations of a serial dilution (1:3.16) were tested, starting off from 10 μM. Reliable IC50's could consequently be determined only, if they were at least sub 2.5-3 μM.

[2] = system: Interleukin-2 (IL-2) production/release in Jurkat T cell line clone E6-1; experiment: Jurkat IL-2 Production Assay; format: cell-based; details: Homo sapiens; Jurkat T cells stimulated with 15 μg/ml PHA for 22 hours; IL-2 in supernatant (AlphaLisa)
Protocol: Jurkat IL-2 Production Assay
The effect of compounds of the invention on Interleukin-2 (IL-2) production/release was tested in the Jurkat T cell line (ECACC) clone E6-1.
Jurkat T cells were cultured in DMEM/F12/Glutamax (Gibco) containing 10% FCS (Gibco), and maintained at 37° C., 5% CO2. Cells were split twice a week [5·10^6 (Mon-Thu) and 1·10^7 (Thu-Mon) cells/50 ml medium in T-175 ZK culture flasks, respectively].
Prior to experiment, cells were seeded on 96 well plates (Cellstar 96 Well; Cat No. 655180, Greiner bio-one) at a density of 5·10^5 cells/well in DMEM/F12/Glutamax (Gibco) containing 10% FCS (Gibco), and incubated for 60 min at 37° C., 5% CO2. Subsequently, compounds were added and cells were allowed to incubate for 30 min at 37° C., 5% CO2. Cells were then stimulated with 15 μg/ml Phyto-hemagglutinin (PHA; Sigma) for 22 hours at 37° C., 5% CO2.
Before sampling of the supernatants, cells were spun down (200*g/5 min/RT). The amount of IL-2 released into the supernatant was quantified with the human IL-2 AlphaLisa kit (Perkin Elmer) according to manufacturer's instructions. Luminescence proximity measurements were carried out in the Synergy H4 reader (BioTek) employing the fluorescence setting of the reader (ex: 680/30 nm; em: 620/40 nm).
Inhibition of IL-Production/Release in/from Jurkat T Cells Cells was Quantified as Follows:
Zero percent inhibition (MAX) was defined as the [IL-2] determined in supernatants derived from cells to which PHA & DMSO-only had been added instead of compound. Hundred percent inhibition (MIN) was defined as the [IL-2] determined in supernatants derived from cells that had been pre-treated with 1 μM CyclosporineA (Sigma) before the addition of 15 μg/ml PHA.
For routine IC50 determinations of compounds, 8 concentrations of a serial dilution (1:3.16) were tested, starting off from 10 μM.

T1 sequence (Q96D31 whole entry): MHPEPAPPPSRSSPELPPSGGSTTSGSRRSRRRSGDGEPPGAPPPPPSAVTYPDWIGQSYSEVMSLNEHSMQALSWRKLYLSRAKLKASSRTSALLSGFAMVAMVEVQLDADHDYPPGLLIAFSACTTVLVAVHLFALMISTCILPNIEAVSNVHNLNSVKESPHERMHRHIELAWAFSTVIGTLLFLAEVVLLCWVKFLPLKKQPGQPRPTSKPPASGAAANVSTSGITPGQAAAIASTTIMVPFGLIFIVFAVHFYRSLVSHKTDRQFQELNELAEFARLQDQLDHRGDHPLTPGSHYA

Cc1ccc(C2CCOCC2)cc1-c1cc(C(=O)Nc2c(F)cccc2F)nn1C [Example 22, N-(2,6-Difluoro-phenyl)-1-methyl-5-(2-methyl-5-tetrahydro-pyran-4-yl-phenyl)-1H-pyrazole-3-carboxylic acid amide] gave an inhibition at 10 µM [1] greater than 70% and an IC50 [2] of 1 to 5 µM.

Cc1ccc(-c2ncn(C)n2)cc1-c1cc(C(=O)Nc2c(F)cccc2F)nn1C [Example 23, N-(2,6-Difluoro-phenyl)-1-methyl-5-[2-methyl-5-(1-methyl-1H-[1,2,4]triazol-3-yl)-phenyl]-1H-pyrazole-3-carboxylic acid amide] gave an inhibition at 10 µM [1] of less than 50% and an IC50 [2] of 1 to 5 µM.

In the case of Cc1cc(-c2nccs2)ccc1-c1cc(C(=O)Nc2c(F)cccc2F)nn1C [Example 24, N-(2,6-Difluoro-phenyl)-1-methyl-5-(2-methyl-4-thiazol-2-yl-phenyl)-1H-pyrazole-3-carboxylic acid amide], the inhibition at 10 µM [1] is reported as greater than 70% and the IC50 [2] is reported as 1 to 5 µM.

Work on Cc1ccc(-c2nccs2)cc1-c1c(C)c(C(=O)Nc2c(F)cccc2F)nn1C [Example 25, N-(2,6-Difluoro-phenyl)-1,4-dimethyl-5-(2-methyl-5-thiazol-2-yl-phenyl)-1H-pyrazole-3-carboxylic acid amide] yielded an inhibition at 10 µM [1] of less than 50% and an IC50 [2] of 1 to 5 µM.

Compound Cc1ccc(-c2nccs2)cc1-c1c(C)c(C(=O)Nc2ccncc2F)nn1C [Example 26, N-(3-Fluoro-pyridin-4-yl)-1,4-dimethyl-5-(2-methyl-5-thiazol-2-yl-phenyl)-1H-pyrazole-3-carboxylic acid amide] has an inhibition at 10 µM [1] of less than 50% and an IC50 [2] of 1 to 5 µM.

Compound Cc1c(C(=O)Nc2c(F)cccc2F)nn(C)c1-c1cccc(-c2nccs2)c1 [Example 27, N-(2,6-Difluoro-phenyl)-1,4-dimethyl-5-(3-thiazol-2-yl-phenyl)-1H-pyrazole-3-carboxylic acid amide] has an inhibition at 10 µM [1] greater than 70% and an IC50 [2] of 0.5 to 1 µM.

For Cc1nnc(-c2ccc(C)c(-c3cc(C(=O)Nc4c(F)cccc4F)nn3C)c2)[nH]1 [Example 28, N-(2,6-Difluoro-phenyl)-1-methyl-5-[2-methyl-5-(5-methyl-4H-[1,2,4]triazol-3-yl)-phenyl]-1H-pyrazole-3-carboxylic acid amide], the inhibition at 10 µM [1] was less than 50% and the IC50 [2] was 1 to 5 µM.

Work on Cn1nc(C(=O)Nc2c(F)cccc2F)cc1-c1cc(-c2ncco2)ccc1OC(F)(F)F [Example 30, N-(2,6-Difluoro-phenyl)-1-methyl-5-[5-oxazol-2-yl-2-(trifluoromethyloxy)-phenyl]-1H-pyrazole-3-carboxylic acid amide] yielded an inhibition at 10 µM [1] greater than 70% and an IC50 [2] of 0.5 to 1 µM.

Cn1nc(C(=O)Nc2ccncc2F)cc1-c1cc(-c2ncco2)ccc1OC(F)(F)F [Example 31, N-(3-Fluoro-pyridin-4-yl)-1-methyl-5-[5-oxazol-2-yl-2-(trifluoromethyloxy)-phenyl]-1H-pyrazole-3-carboxylic acid amide] gave an inhibition at 10 µM [1] of 50 to 70% and an IC50 [2] of 1 to 5 µM.

In the case of Cc1ccc(-c2nnc[nH]2)cc1-c1cc(C(=O)Nc2c(F)cccc2F)nn1C [Example 32, N-(2,6-Difluoro-phenyl)-1-methyl-5-[2-methyl-5-(4H-[1,2,4]triazol-3-yl)-phenyl]-1H-pyrazole-3-carboxylic acid amide], the inhibition at 10 µM [1] is reported as less than 50% and the IC50 [2] is reported as 1 to 5 µM.

Compound Cn1nc(C(=O)Nc2c(F)cncc2F)cc1-c1cc(-c2ncco2)ccc1OC(F)(F)F [Example 33, N-(3,5-Difluoro-pyridin-4-yl)-1-methyl-5-[5-oxazol-2-yl-2-(trifluoro-methyloxy)-phenyl]-1H-pyrazole-3-carboxylic acid amide] has an inhibition at 10 µM [1] of 50 to 70% and an IC50 [2] of 0.5 to 1 µM.

In the case of COc1ccc(C2CC2)cc1-c1c(C)c(C(=O)Nc2c(F)cccc2F)nn1C [Example 34, 5-(5-Cyclopropyl-2-methoxy-phenyl)-N-(2,6-difluoro-phenyl)-1,4-dimethyl-1H-pyrazole-3-carboxylic acid amide], the inhibition at 10 µM [1] is reported as greater than 70% and the IC50 [2] is reported as 0.5 to 1 µM.

With COc1ccc(C2CC2)cc1-c1c(C)c(C(=O)Nc2c(F)cncc2F)nn1C [Example 35, 5-(5-Cyclopropyl-2-methoxy-phenyl)-N-(3,5-difluoro-pyridin-4-yl)-1,4-dimethyl-1H-pyrazole-3-carboxylic acid amide] the inhibition at 10 µM [1] was greater than 70% and the IC50 [2] was 0.5 to 1 µM.

Cn1nc(C(=O)Nc2c(F)cccc2F)cc1-c1cc(C2CC2)ccc1OC(F)(F)F [Example 36, 5-[5-Cyclopropyl-2-(trifluoromethyloxy)-phenyl]-N-(2,6-difluoro-phenyl)-1-methyl-1H-pyrazole-3-carboxylic acid amide] was tested, and the inhibition at 10 µM [1] was greater than 70% and the IC50 [2] was less than 0.5 µM.

Work on Cn1nc(C(=O)Nc2c(F)cncc2F)cc1-c1cc(C2CC2)ccc1OC(F)(F)F [Example 37, 5-[5-Cyclopropyl-2-(trifluoromethyloxy)-phenyl]-N-(3,5-difluoro-pyridin-4-yl)-1-methyl-1H-pyrazole-3-carboxylic acid amide] yielded an inhibition at 10 µM [1] greater than 70% and an IC50 [2] of less than 0.5 µM.

Cn1nc(C(=O)Nc2ccncc2F)cc1-c1cc(C2CC2)ccc1OC(F)(F)F [Example 38, 5-[5-Cyclopropyl-2-(trifluoromethyloxy)-phenyl]-N-(3-fluoro-pyridin-4-yl)-1-methyl-1H-pyrazole-3-carboxylic acid amide] gave an inhibition at 10 µM [1] greater than 70% and an IC50 [2] of 1 to 5 µM.

In the case of Cn1nc(C(=O)Nc2c(F)cccc2F)cc1-c1ccc(C2CC2)cc1OC(F)(F)F [Example 39, 5-[4-Cyclopropyl-2-(trifluoromethyloxy)-phenyl]-N-(2,6-difluoro-phenyl)-1-methyl-1H-pyrazole-3-carboxylic acid amide], the inhibition at 10 µM [1] is reported as greater than 70% and the IC50 [2] is reported as less than 0.5 µM.

In the case of Cn1nc(C(=O)Nc2c(F)cncc2F)cc1-c1ccc(C2CC2)cc1OC(F)(F)F [Example 40, 5-[4-Cyclopropyl-2-(trifluoromethyloxy)-phenyl]-N-(3,5-difluoro-pyridin-4-yl)-1-methyl-1H-pyrazole-3-carboxylic acid amide], the inhibition at 10 µM [1] is reported as greater than 70% and the IC50 [2] is reported as less than 0.5 µM.

Cn1nc(C(=O)Nc2ccncc2F)cc1-c1ccc(C2CC2)cc1OC(F)(F)F [Example 41, 5-[4-Cyclopropyl-2-(trifluoromethyloxy)-phenyl]-N-(3-fluoro-pyridin-4-yl)-1-methyl-1H-pyrazole-3-carboxylic acid amide] gave an inhibition at 10 µM [1] greater than 70% and an IC50 [2] of 1 to 5 µM.

Cc1ccc(-c2ncco2)cc1-c1c(N)c(C(=O)Nc2c(F)cncc2F)nn1C [Example 43, 4-Amino-N-(3,5-difluoro-pyridin-4-yl)-1-methyl-5-(2-methyl-5-oxazol-2-yl-phenyl)-1H-pyrazole-3-carboxylic acid amide] was tested, and the inhibition at 10 µM [1] was less than 50% and the IC50 [2] was 1 to 5 µM.
